From patent US8853246B2 (Dow AgroSciences LLC, priority 2009, dated 2014)

Experiments:
[1] = system: Sweetpotato Whitefly-Crawler (Bemisia Tabaci); test: Insecticidal test for sweetpotato whitefly-crawler in foliar spray assay (col. BEMITA); format: in vivo; conditions: Bemisia tabaci, sweetpotato whitefly-crawler, read-out: BEMITA 200 ppm (Corrected % Control, rating)
Outline: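 Percent control, Abbott-corrected against diluent-sprayed plants, from microscope counts of live nymphs 8-9 days after treatment. Test solution at 200 ppm in 0.025% aqueous Tween 20 applied to both leaf sides of egg-infested cotton after a 5-6 day hatch period (82° F, 50% RH).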

[2] = system: Green Peach Aphid (Myzus Persicae); test: Insecticidal test for green peach aphid in foliar spray assay (col. MYZUPE); format: in vivo; conditions: Myzus persicae, 72 h, green peach aphid, read-out: MYZUPE 200 ppm (Corrected % Control, rating)
Outline: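 Corrected % control derives from microscope counts of live aphids per plant, treated against diluent-only checks, 3 days after foliar spraying at ~25 °C and 40% RH. Test solution was 200 ppm in 0.025% aqueous Tween 20, applied to both leaf sides of infested cabbage seedlings, four pots each.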

SMILES | melting point [°C] | pest or weed control at 200 ppm [1] [%] | pest or weed control at 200 ppm [2] [%]
CSCCC(=O)N(C)c1cnc(-c2ccc(Cl)nc2)s1 [Compound 70] | 160 to 164 | < 80 | < 80
CC(C[S+](C)[O-])C(=O)N(C)c1cnc(-c2cccnc2)s1 (stereo not drawn) [Compound 79] | 135 to 140 | < 80 | 80 to 100
CN(C(=O)C(C)(C)C[S+](C)[O-])c1cnc(-c2cccnc2)s1 (stereo not drawn) [Compound 80] | 118 to 122 | 80 to 100 | 80 to 100
CC(C[S+](C)[O-])C(=O)N(C)c1cnc(-c2cncc(F)c2)s1 (stereo not drawn) [Compound 81] | 68 to 70 | 80 to 100 | 80 to 100
CN(C(=O)NCC[S+](C)[O-])c1cnc(-c2cncc(F)c2)s1 (stereo not drawn) [Compound 82] | 202 to 203 | < 80 | 80 to 100
CN(CC[S+](C)[O-])C(=O)N(C)c1cnc(-c2cncc(F)c2)s1 (stereo not drawn) [Compound 83] | 95 to 99 | 80 to 100 | 80 to 100
CN(C(=O)C(C)(C)C[S+](C)[O-])c1cnc(-c2cncc(F)c2)s1 (stereo not drawn) [Compound 85] | 155 to 159 | 80 to 100 | 80 to 100
Cc1nc(-c2cccnc2)sc1NC(=O)C(C)C[S+](C)[O-] (stereo not drawn) [Compound 92] | 160 to 163 | < 80 | 80 to 100
Cc1nc(-c2cccnc2)sc1NC(=O)C(C)(C)C[S+](C)[O-] (stereo not drawn) [Compound 94] | 55 to 60 | < 80 | 80 to 100
Cc1nc(-c2cncc(F)c2)sc1N(C)C(=O)C(C)CS(C)(=O)=O (stereo not drawn) [Compound 98] | 105 to 109 | 80 to 100 | 80 to 100
Cc1nc(-c2cccnc2)sc1NC(=O)C(C)CS(C)(=O)=O (stereo not drawn) [Compound 99] | 175 to 180 | 80 to 100 | 80 to 100
Cc1nc(-c2cccnc2)sc1NC(=O)CCS(C)(=O)=O [Compound 100] | 222 to 224 | < 80 | 80 to 100
Cc1nc(-c2cccnc2)sc1NC(=O)C(C)(C)CS(C)(=O)=O [Compound 101] | 134 to 136 | 80 to 100 | 80 to 100
CSCCC(=O)Nc1sc(-c2cccnc2)nc1C(F)(F)F [Compound 133] | 131 to 133 | < 80 | 80 to 100
CC(C)C(=O)Nc1sc(-c2cccnc2)nc1C(F)(F)F [Compound 136] | 130 to 131 | < 80 | 80 to 100
Cc1nc(-c2cncc(F)c2)sc1NC(=O)C(C)C [Compound 140] | 155 to 159 | < 80 | 80 to 100
CSCC(C)C(=O)Nc1sc(-c2cncc(F)c2)nc1C (stereo not drawn) [Compound 141] | 110 to 113 | 80 to 100 | 80 to 100
CSCCC(=O)Nc1sc(-c2cncc(F)c2)nc1C [Compound 142] | 126 to 130 | < 80 | 80 to 100
Cc1nc(-c2cncc(F)c2)sc1NC(=O)C(C)(C)C[S+](C)[O-] (stereo not drawn) [Compound 143] | 160 to 163 | < 80 | 80 to 100
Cc1nc(-c2cncc(F)c2)sc1NC(=O)C(C)(C)CS(C)(=O)=O [Compound 144] | 157 to 167 | < 80 | 80 to 100
Cc1nc(-c2cncc(F)c2)sc1NC(=O)C(C)C[S+](C)[O-] (stereo not drawn) [Compound 145] | 194 to 198 | < 80 | 80 to 100
Cc1nc(-c2cncc(F)c2)sc1NC(=O)C(C)CS(C)(=O)=O (stereo not drawn) [Compound 146] | 187 to 189 | < 80 | 80 to 100
Cc1nc(-c2cncc(F)c2)sc1NC(=O)CC[S+](C)[O-] (stereo not drawn) [Compound 147] | 181 to 184 | < 80 | 80 to 100
Cc1nc(-c2cncc(F)c2)sc1NC(=O)CCS(C)(=O)=O [Compound 148] | 230 to 232 | < 80 | 80 to 100
Cc1nc(-c2ccc(Cl)nc2)sc1NC(=O)OC(C)(C)C [Compound 149] | 154 to 157 | < 80 | < 80

SMILES | melting point [°C] | pest or weed control at 200 ppm [1] [%] | pest or weed control at 200 ppm [2] [%]
Cc1cncc(-c2nc(C)c(NC(=O)OC(C)(C)C)s2)c1 [Compound 150] | 135 to 138 | < 80 | 80 to 100
Cc1nc(-c2cncc(C#N)c2)sc1NC(=O)OC(C)(C)C [Compound 151] | 171 to 174 | < 80 | < 80
CSCC(C)C(=O)N(C(=O)OC(C)(C)C)c1sc(-c2ccc(Cl)nc2)nc1C (stereo not drawn) [Compound 153] | 82 to 85 | 80 to 100 | < 80
CSCC(C)C(=O)N(C(=O)OC(C)(C)C)c1sc(-c2cncc(C#N)c2)nc1C (stereo not drawn) [Compound 158] | 125 to 128 | < 80 | < 80
CSCC(C)C(=O)Nc1sc(-c2ccc(F)nc2)nc1C (stereo not drawn) [Compound 159] | 143 to 146 | 80 to 100 | 80 to 100
CCOC(=O)c1cncc(-c2nc(C)c(NC(=O)OC(C)(C)C)s2)c1 [Compound 160] | 124 to 128 | < 80 | < 80
Cc1nc(-c2cncc(F)c2)sc1NC(=O)C(C)C/S(C)=N\C#N (stereo not drawn) [Compound 163] | 75 to 81 | < 80 | 80 to 100
CSCC(C)C(=O)Nc1sc(-c2ccc(Cl)nc2)nc1C (stereo not drawn) [Compound 169] | 142 to 146 | 80 to 100 | < 80
CSCC(C)C(=O)Nc1sc(-c2cncc(C#N)c2)nc1C (stereo not drawn) [Compound 172] | 127 to 131 | 80 to 100 | 80 to 100
COc1cncc(-c2nc(C)c(NC(=O)OC(C)(C)C)s2)c1 [Compound 175] | 136 to 140 | < 80 | < 80
CSCCNC(=O)N(C)c1sc(-c2cccnc2)nc1C [Compound 177] | 115 to 119 | < 80 | 80 to 100
CSCCOC(=O)Nc1sc(-c2cccnc2)nc1C [Compound 181] | 123 to 126 | < 80 | 80 to 100
CC(=O)Nc1sc(-c2cccnc2)nc1C [Compound 186] | 180 to 182 | < 80 | < 80
Cc1nc(-c2cccnc2)sc1NC(=O)[C@H](C)NC(=O)OC(C)(C)C [Compound 187] | 166 to 169 | < 80 | 80 to 100
CC(=O)N(C)c1sc(-c2cccnc2)nc1C [Compound 193] | 127 to 130 | 80 to 100 | 80 to 100
COC(=O)CCC(=O)Nc1sc(-c2cccnc2)nc1C [Compound 197] | 151 to 153 | < 80 | 80 to 100
COCC(C)(C)OC(=O)Nc1sc(-c2cccnc2)nc1C [Compound 199] | 120 to 123 | 80 to 100 | 80 to 100
Cc1nc(-c2cccnc2)sc1NC(=O)OCc1ccccc1 [Compound 201] | 137 to 139 | < 80 | < 80
COC(=O)Nc1sc(-c2cccnc2)nc1C [Compound 202] | 159 to 160 | < 80 | < 80
C=CC(=O)N(C(=O)OC(C)(C)C)c1sc(-c2cccnc2)nc1C [Compound 205] | 68 to 70 | 80 to 100 | 80 to 100
Cc1nc(-c2cccnc2)sc1NC(=O)CCCCl [Compound 209] | 144 to 147 | < 80 | 80 to 100
CSC(C)(C)CC(=O)N(C)c1sc(-c2cncc(F)c2)nc1C [Compound 212] | 73 to 80 | 80 to 100 | 80 to 100
CS[C@H]1CC1C(=O)N(C)c1sc(-c2cncc(F)c2)nc1C (stereo partly drawn) [Compound 216] | 88 to 90 | 80 to 100 | 80 to 100
CSC(C)(C)CC(=O)Nc1sc(-c2cncc(F)c2)nc1C [Compound 217] | 123 to 126 | < 80 | 80 to 100
Cc1nc(-c2cncc(F)c2)sc1NC(=O)C1CCSC1 (stereo not drawn) [Compound 219] | 209 to 213 | < 80 | 80 to 100
